Earlier results as cited in EP1133548B2, “DETERGENT COMPOSITIONS IN TABLET FORM” (UNILEVER PLC, priority 1998, dated 2000).

settings: 20°C; grams of solid to form a saturated solution in 100 grams of water

Water Solubility (g/100g)	Compound
15 g/100g	O=P(O)(O)OP(=O)(O)OP(=O)(O)O [Sodium tripolyphosphate anhydrous]
>100 g/100g	NC(N)=O [Urea]

Compound	Water Solubility (g/100g)
O=BO[O-].[Na+] [Sodium perborate anhydrous]	3.7 g/100g
